Data: patent publication US6599907B1, “Cystic fibrosis medicaments” (University of Wales College of Medicine, priority 1999, dated 2003)
Where two headings read alike, the source gives them in different places. Marks after values point to notes of the source that are not given here.

Experiments:
[1] = test system: cyclic GMP; test: Cyclic GMP content of acini (radioimmunoassay); assay type: cell-based, rat; conditions: for Cyclic GMP (fmol/mg protein), + Isoproterenol (10 μM) / Cyclic GMP (fmol/mg protein), No Isoproterenol: 5 min, IBMX, Types III, IV 1 mM, Type V 0.2 mM, mean±SEM (n)
[2] = molecular target: PDE V (Homo sapiens, UniProt O76074); test: PDE V inhibition; assay type: biochemical
[3] = test system: cyclic AMP; test: Cyclic AMP content of acini (radioimmunoassay); assay type: cell-based, rat; conditions: for Cyclic AMP (pmol/mg protein), isoproterenol-stimulated: isoproterenol 10 μM alone or + PDE inhibitor (IBMX, Type III, Type IV 1 mM; Type V 0.2 mM), 5 min, n in parentheses
[4] = test system: rat submandibular acini; test: Mucin secretion from rat submandibular acini ([3H]-glucosamine labelled mucin release); conditions: for Mucin secretion % basal: wild type mucin secretion; for Mucin Secretion (% basal), isoproterenol-stimulated: isoproterenol 10 μM alone or + PDE inhibitor (IBMX, Type III, Type IV 1 mM; Type V 0.2 mM), 30 min, n in parentheses
[5] = test system: CFTR; test: Correction of CFTR antibody-inhibited β-adrenergic stimulation of mucin secretion in rat submandibular acini; conditions: acini containing CFTR antibody; isoproterenol 10 μM + PDE inhibitor (Types III, IV 1 mM; Type V 0.2 mM); 30 min; compared with cpt-cyclic AMP 1 mM
[6] = test system: CFTR; conditions: acini containing CFTR antibody; 1 mM; 'has been shown'; cited from earlier work

IC50 ([2]; read-out: PDE V IC50)	Structure (SMILES)	cyclic GMP % basal [1]	cyclic AMP % basal [3]	Mucin secretion % basal [4]	Cyclic GMP (fmol/mg protein), + Isoproterenol (10 μM) [1]	Cyclic GMP (fmol/mg protein), No Isoproterenol [1]	Correction of the defective β-adrenergic secretory response (FIG. 1) [5]	Cyclic AMP (pmol/mg protein), isoproterenol-stimulated [3]	Cyclic AMP (pmol/mg protein), isoproterenol-stimulated ([3]; listed as Type V PDE inhibitor)	Mucin Secretion (% basal), isoproterenol-stimulated [4]	Restored secretion, % of the secretion response seen in cells containing an equivalent amount of non-immune IgG [6]	IC50 [2]
34 µM	COc1ccccc1-c1nc2cccnc2[nH]1 [d)]	90 % basal	600* % basal	200* % basal	–	–	–	–	–	–	–	–
–	CCCOc1ccccc1-c1nc2[nH]cnc2c(=O)[nH]1 [Type V, 1,7-dihydro-2-(2-propoxyphenyl)-6H-purin-6-one]	–	–	–	**64.3 ± 3.6 (5) fmol/mg protein	*47.3 ± 2.5 (5) fmol/mg protein	as effective as cpt-cAMP	375.5 ± 95.8 (6) pmol/mg protein	did not potentiate	755 ± 243 (6) % basal	–	–
–	CCCOc1ccccc1-c1nc2[nH]cnc2c(=O)[nH]1 [a)]	140 % basal	100 % basal	120 % basal	–	–	–	–	–	–	–	–
–	C[C@@H]1CC(=O)NN=C1c1ccc(-n2ccc(=O)cc2)cc1 (racemic) [Type III, (R,S)-4,5-dihydro-6-[4-(1,4-dihydro-4-oxopyridin-1-yl)phenyl]-5-methyl-3(2H)-pyridazinone, reference compound]	–	–	–	47.0 ± 1.8 (4) fmol/mg protein	39.3 ± 2.4 (3) fmol/mg protein	ineffective	*1009.6 ± 91.5 (6) pmol/mg protein	–	692 ± 238 (6) % basal	–	–
0.65 µM	CCCOc1ccccc1-c1nc2nc(N)ncc2c(=O)[nH]1 [e)]	130 % basal	350* % basal	170* % basal	–	–	–	–	–	–	–	–
–	COc1ccc(C2CNC(=O)C2)cc1OC1CCCC1 (stereo not drawn) [Type IV, 4-(3-cyclopentyloxy-4-methoxyphenyl)-2-pyrrolidinone, reference compound]	–	–	–	45.2 ± 2.0 (4) fmol/mg protein	40.1 ± 1.5 (3) fmol/mg protein	as effective as cpt-cAMP	**1908.7 ± 150.8 (6) pmol/mg protein	–	708 ± 220 (6) % basal	–	–
0.75 µM	CCCCOc1ccccc1-c1nc2cccnc2[nH]1 [g)]	110 % basal	160* % basal	200* % basal	–	–	–	–	–	–	–	–
–	CC(C)Cn1c(=O)n(C)c(=O)c2[nH]cnc21 [IBMX, reference compound]	–	–	–	**55.6 ± 1.6 (8) fmol/mg protein	48.1 ± 5.2 (8) fmol/mg protein	–	*1252.9 ± 129.6 (6) pmol/mg protein	–	924 ± 290 (6) % basal	approx. 75%	–
1.3 µM	CCOc1ccccc1-c1nc2[nH]c(=O)[nH]c2c(=O)[nH]1 [j)]	140* % basal	100 % basal	160* % basal	–	–	–	–	–	–	–	–
–	CCCOc1ccccc1-c1nc2cnccc2c(=O)[nH]1 [b)]	130 % basal	600* % basal	180* % basal	–	–	–	–	–	–	–	0.55 µM
48 µM	O=c1[nH]c(-c2ccccc2O)nc2[nH]cnc12 [h)]	110 % basal	100 % basal	180* % basal	–	–	–	–	–	–	–	–
22 µM	CNc1ncc2c(=O)[nH]c(-c3ccccc3OC)nc2n1 [c)]	90 % basal	250* % basal	160* % basal	–	–	–	–	–	–	–	–
0.2 µM	CCCOc1ccccc1-c1nc2nc(NCC(C)O)ncc2c(=O)[nH]1 (stereo not drawn) [i)]	90 % basal	100 % basal	170* % basal	–	–	–	–	–	–	–	–
–	CC(C)NCC(O)c1ccc(O)c(O)c1 (stereo not drawn) [Isoproterenol, reference compound]	–	–	–	45.2 ± 1.6 (4) fmol/mg protein	–	–	373.0 ± 84.0 (6) pmol/mg protein	–	785 ± 212 (6) % basal	–	–
4.5 µM	CCOc1ccccc1-c1nc2[nH]cnc2c(=O)[nH]1 [f)]	110 % basal	100 % basal	160* % basal	–	–	–	–	–	–	–	–
